The results in this text go back to patent publication USRE37781E1, “Substituted cyclic carbonyls and derivatives thereof useful as retroviral protease inhibitors” (DuPont Pharmaceuticals Company, priority 1991, dated 2002).

For test [1], the target named is single-chain tethered dimer of HIV protease (Human immunodeficiency virus 1, UniProt P04585). In words: biochemical. In kind it is biochemical. Also on record: fused on or other part: A second copy of the same protease unit is joined to the first by a short peptide tether, giving one polypeptide.
The test system of test [2] is HIV-1 (RF) in MT-2 cells. In words: microbe, parasite or virus in culture. It counts as cell-based. A digest of the protocol:
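Read-out: gag and pol viral RNA captured by 5′-biotinylated oligonucleotides on streptavidin-coated wells, detected with alkaline phosphatase-linked reporter oligonucleotides, calibrated against BH10 in vitro transcripts. Virus stocks (RF, MN, IIIB) come from H9 cultures; MT-2 host cells kept in RPMI 1640, 5% FCS.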

The mark [3] stands for this setting: Table 2d, HIV protease inhibition, HPLC method, read-out: HPLC K1.
Where [4] appears, read: read-out: HPLC K1, Table 2d, HIV protease inhibition, HPLC method.
[5] abbreviates: Human immunodeficiency virus 1, MT2, 48 h, Table 2d, HIV RNA assay, read-out: IC90.
[6] abbreviates: read-out: HPLC K1, Table 2d, class symbols.
[7] abbreviates: Human immunodeficiency virus 1, MT2, 48 h, Table 2d, class symbols, read-out: IC90.
The mark [8] stands for this setting: Table 2d, class symbols, read-out: HPLC K1.

Converted amounts (≈) assume the structure as drawn. Where two headings read alike, the source gives them in different places.

With `Oc1cccc(CN2C(=S)N(Cc3cccc(O)c3)C(Cc3ccccc3)C(O)C(O)C2Cc2ccccc2)c1` (stereo not shown) [Example 27J], the Ki in test [1] (Table 2q, read-out: HPLC Ki) is less than 10 nM. Moreover, in test [2] (Table 2q), the concentration for an effect of 90% (IC90) (as a rule, the point of the concentration-response curve where the effect stands at 90%) is listed as “+++ (+++=<10 μg/mL)”.

Regarding `O=C1N(Cc2ccccc2)C(Cc2ccccc2)C(O)C(O)C(Cc2ccccc2)N1Cc1ccc2[nH]nnc2c1` (stereo not shown) [15DN], the Ki in test [1] (setting [3]) was less than 10 nM. Besides, in test [2] (Table 2d, HIV RNA assay), the 90% effect concentration (IC90) result was “+++ (+++=<10 μg/mL)”.

Regarding `C[Si](C)(C)CCOCn1cncc1-c1cccc(CN2C(=O)N(Cc3cccc(-c4cncn4COCC[Si](C)(C)C)c3)C(Cc3ccccc3)C(O)C(O)C2Cc2ccccc2)c1` (stereo not shown) [Example 15BJ], the Ki in test [1] (setting [4]) is less than 10 nM. The concentration for an effect of 90% (IC90) in test [2] (setting [5]) is less than 10 µg/mL.

On to `NC(=O)c1cccc(CN2C(=O)N(Cc3cccc(C(N)=O)c3)C(Cc3ccc(F)cc3)C(O)C(O)C2Cc2ccc(F)cc2)c1` (stereo not shown) [20L], for which the Ki in test [1] (Table 2i, read-out: HPLC Ki) is less than 10 nM. Moreover, the concentration for an effect of 90% (IC90) result in test [2] (Table 2i) is “+++ (+++=<10 μg/mL)”.

On to `O=C1N(Cc2cccc(I)c2)C(Cc2ccccc2)C(O)C(O)C(Cc2ccccc2)N1Cc1cccc(I)c1` (stereo not shown) [Example 12J], for which the Ki in test [1] (setting [6]) was less than 10 nM. The IC90 in test [2] (setting [7]) is less than 10 µg/mL.

`COC(=O)Cc1cccc(CN2C(=O)N(Cc3cccc(CC(=O)OC)c3)C(Cc3ccccc3)C(O)C(O)C2Cc2ccccc2)c1` (stereo not shown) [15DW]: the Ki in test [1] (setting [3]) was less than 10 nM. Moreover, the IC90 result in test [2] (Table 2d, HIV RNA assay) is “+++ (+++=<10 μg/mL)”.

As to `O=C1N(Cc2ccc(CO)cc2)C(Cc2ccccc2)C(O)C(O)C(Cc2ccccc2)N1Cc1ccccc1O` (stereo not shown) [15EA], the Ki in test [1] (setting [4]) is less than 10 nM. For the same compound, the IC90 in test [2] (setting [5]) is less than 10 µg/mL.

Turning to `CN(C)CC(=O)Nc1cccc(CN2C(=O)N(Cc3cccc(NC(=O)CN(C)C)c3)C(Cc3ccccc3)C(O)C(O)C2Cc2ccccc2)c1.Cl.Cl` (stereo not shown) [15N], the Ki in test [1] (setting [8]) was less than 10 nM. In addition, the IC90 result in test [2] (Table 2d, class symbols) was “+++ (+++=<10 μg/mL)”.

On to `O=C1N(CC2CC2)C(Cc2ccccc2)C(O)C(O)C(Cc2ccccc2)N1CC1CC1` (stereo not shown) [Example 13o], for which the Ki in test [1] (setting [8]) was greater than 1000 nM. Moreover, the concentration for an effect of 90% (IC90) result in test [2] (Table 2d, class symbols) was “++ (++=10 to 100 μg/mL)”.

Turning to `O=C1N(Cc2cccc(C(=NO)C(F)(F)F)c2)C(Cc2ccccc2)C(O)C(O)C(Cc2ccccc2)N1Cc1cccc(C(=NO)C(F)(F)F)c1` (stereo not shown) [Example 15XR], the Ki in test [1] (setting [4]) was less than 10 nM. Besides, the 90% effect concentration (IC90) in test [2] (setting [5]) is less than 10 µg/mL.

Regarding `C=CCN1C(Cc2ccccc2)C(O)C(O)C(Cc2ccccc2)N(CC=C)S1(=O)=O` (stereo not shown) [23E], the Ki in test [1] (Table 2m, read-out: HPLC Ki) lay within 10 to 1000 nM. For the same compound, in test [2] (Table 2m), the IC90 entry is reported as “+++ (+++=<10 μg/mL)”.

Regarding `O=C1N(Cc2cccc(-c3cc[nH]n3)c2)C(Cc2ccc(F)cc2)C(O)C(O)C(Cc2ccc(F)cc2)N1CC1CC1` (stereo not shown) [20AE], in test [1] (Table 2i, read-out: HPLC Ki), the Ki is less than 10 nM. Moreover, in test [2] (Table 2i), the 90% effect concentration (IC90) entry is recorded as “+++ (+++=<10 μg/mL)”.

Consider `CN(C)P1(=O)N(CC2CC2)[C@H](Cc2ccccc2)[C@H](O)[C@@H](O)[C@@H](Cc2ccccc2)N1CC1CC1` (stereo partly shown) [28G], for which the Ki in test [1] (Table 2r, read-out: Ki HPLC) was greater than 1000 nM. Also, the IC90 entry in test [2] (Table 2r) is “++ (++=10 to 100 μg/mL)”.

As to `O=C1N(Cc2ccc(O)cc2)C(Cc2ccccc2)C(O)C(O)C(Cc2ccccc2)N1Cc1cccc(-c2cc[nH]n2)c1` (stereo not shown) [15CA], in test [1] (setting [4]), the Ki was less than 10 nM. For the same compound, in test [2] (setting [5]), the IC90 was less than 10 µg/mL.

For the compound `COC(=O)CCCCCN1C(=O)N(CCCCCC(=O)O)C(Cc2ccccc2)C(O)C(O)C1Cc1ccccc1` (stereo not shown) [Example 12I], the Ki in test [1] (setting [8]) is less than 10 nM. Besides, the IC90 entry in test [2] (Table 2d, class symbols) is “+ (+=>100 μg/mL)”.

`O=C1N(Cc2cccc(-c3cc[nH]n3)c2)C(Cc2ccccc2)C(O)C(O)C(Cc2ccccc2)N1Cc1cccc([N+](=O)[O-])c1` (stereo not shown) [Example 15CD]: the Ki in test [1] (setting [4]) was less than 10 nM. Besides, the IC90 in test [2] (setting [5]) was less than 10 µg/mL.

In the case of `O=C(NCCN1CCOCC1)c1cccc(CN2C(=O)N(Cc3cccc(-c4cc[nH]n4)c3)C(Cc3ccccc3)C(O)C(O)C2Cc2ccccc2)c1` (stereo not shown) [Example 15BT], the Ki in test [1] (setting [4]) is less than 10 nM. Besides, the IC90 in test [2] (setting [5]) was less than 10 µg/mL.

Take `O=C1N(Cc2cccc(O)c2)C(Cc2ccccc2)C(O)C(O)C(Cc2ccccc2)N1Cc1ccc2[nH]nnc2c1` (stereo not shown) [15DR]: in test [1] (setting [3]), the Ki is less than 10 nM. Besides, the IC90 result in test [2] (Table 2d, HIV RNA assay) was “+++ (+++=<10 μg/mL)”.

Turning to `O=C(COCc1ccccc1)c1cccc(CN2C(=O)N(Cc3cccc(C(=O)COCc4ccccc4)c3)C(Cc3ccccc3)C(O)C(O)C2Cc2ccccc2)c1` (stereo not shown) [Example 15BI], the Ki in test [1] (setting [4]) was less than 10 nM. Besides, the IC90 in test [2] (setting [5]) was less than 10 µg/mL.

As to `CC(=O)c1cccc(CN2C(=O)N(Cc3cccc(C(C)=O)c3)C(Cc3ccc(F)cc3)C(O)C(O)C2Cc2ccc(F)cc2)c1` (stereo not shown) [20N], the Ki in test [1] (Table 2i, read-out: HPLC Ki) is less than 10 nM. In test [2] (Table 2i), the IC90 result is recorded as “+++ (+++=<10 μg/mL)”.

`CC(C)(CO)CCCCN1C(=O)N(CCCCC(C)(C)CO)C(Cc2ccccc2)C(O)C(O)C1Cc1ccccc1` (stereo not shown) [15CP]: the Ki in test [1] (setting [3]) is 10 to 1000 nM. In test [2] (Table 2d, HIV RNA assay), the IC90 result is reported as “+++ (+++=<10 μg/mL)”.

As for `O=C1N(Cc2cccnc2Cl)C(Cc2ccccc2)C(O)C(O)C(Cc2ccccc2)N1Cc1cccnc1Cl` (stereo not shown) [Example 14A], the Ki in test [1] (setting [6]) lay in the range of 10 to 1000 nM. In test [2] (setting [7]), the concentration for an effect of 90% (IC90) is 10 to 100 µg/mL (≈ 17.3 to 173 µM).

Regarding `O=C1N(CC2CC2)C(C(F)Cc2ccccc2)C[C@@H](Cc2ccccc2)N1CC1CC1` (stereo partly shown) [Example 8N], the Ki in test [1] (read-out: Ki (HPLC), Table 1e, cells marked (HPLC)) was greater than 1000 nM. The concentration for an effect of 90% (IC90) in test [2] (Human immunodeficiency virus 1, MT2, Table 1e, read-out: IC90) is less than 10 µg/mL.

In the case of `O=C1N(Cc2cccc([N+](=O)[O-])c2)C(Cc2ccccc2)C(O)C(O)C(Cc2ccccc2)N1CC1CC1` (stereo not shown) [15H], the Ki in test [1] (setting [6]) is less than 10 nM. Besides, the IC90 in test [2] (setting [7]) is less than 10 µg/mL.

Regarding `N#Cc1cccc(CN2C(Cc3ccccc3)C(O)C(O)C(Cc3ccccc3)N(Cc3cccc(C#N)c3)S2(=O)=O)c1` (stereo not shown) [23Y], the Ki in test [1] (Table 2m, read-out: HPLC Ki) lay within 10 to 1000 nM. In test [2] (Table 2m), the concentration for an effect of 90% (IC90) result is recorded as “+++ (+++=<10 μg/mL)”.

For the compound `C[Si](C)(C)CCOCn1ccnc1-c1cccc(CN2C(=O)N(Cc3cccc(-c4ncc[nH]4)c3)C(Cc3ccccc3)C(O)C(O)C2Cc2ccccc2)c1` (stereo not shown) [Example 15YK], the Ki in test [1] (setting [4]) was in the range of 10 to 1000 nM. In addition, the IC90 in test [2] (setting [5]) was less than 10 µg/mL.

Take `CCCCN1C(Cc2ccccc2)C(O)C(O)C(Cc2ccccc2)N(CCCC)S1(=O)=O` (stereo not shown) [23G]: the Ki in test [1] (Table 2m, read-out: HPLC Ki) was less than 10 nM. In test [2] (Table 2m), the 90% effect concentration (IC90) entry is “+++ (+++=<10 μg/mL)”.

`CCNC(=O)c1cccc(CN2C(=O)N(Cc3cccc(CO)c3)C(Cc3ccccc3)C(O)C(O)C2Cc2ccccc2)c1` (stereo not shown) [15WK]: in test [1] (setting [6]), the Ki was less than 10 nM. Besides, the IC90 in test [2] (setting [7]) was less than 10 µg/mL.

On to `N#Cc1cccc(CN2C(=O)N(Cc3ccc(O)cc3)C(Cc3ccccc3)C(O)C(O)C2Cc2ccccc2)c1` (stereo not shown) [Example 15AQ], for which, in test [1] (setting [4]), the Ki was less than 10 nM. In addition, in test [2] (setting [5]), the IC90 was less than 10 µg/mL.

As for `O=S1(=O)N(Cc2cccc(O)c2)C(Cc2ccccc2)C(O)C(O)C(Cc2ccccc2)N1Cc1cccc(O)c1` (stereo not shown) [Example 23D], the Ki in test [1] (Table 2m, read-out: HPLC Ki) was less than 10 nM. Moreover, the IC90 result in test [2] (Table 2m) is listed as “+++ (+++=<10 μg/mL)”.

Take `Nc1cccc(CN2C(=O)N(CC3CC3)C(Cc3ccccc3)C(O)C(O)C2Cc2ccccc2)c1` (stereo not shown) [15G]: the Ki in test [1] (setting [6]) was less than 10 nM. The IC90 in test [2] (setting [7]) was less than 10 µg/mL.

For `CC(O)CCCCN1C(=O)N(CCCCC(C)O)C(Cc2ccccc2)C(O)C(O)C1Cc1ccccc1` (stereo not shown) [Example 15VZ], the Ki in test [1] (setting [6]) is less than 10 nM. Besides, the IC90 in test [2] (setting [7]) is less than 10 µg/mL.

On to `COC(=O)NCCCCCN1C(=O)N(CCCCCNC(=O)OC)C(Cc2ccccc2)C(O)C(O)C1Cc1ccccc1` (stereo not shown) [15EQ], for which the Ki in test [1] (setting [3]) lay within 10 to 1000 nM. The IC90 entry in test [2] (Table 2d, HIV RNA assay) was “++/+ (The ++/+ is used in the cases where an IC90 was determined to be >50 μg/mL)”.

Turning to `O=S1(=O)N(Cc2cccc(C=NO)c2)C(Cc2ccccc2)C(O)C(O)C(Cc2ccccc2)N1Cc1cccc(C=NO)c1` (stereo not shown) [23S], the Ki in test [1] (Table 2m, read-out: HPLC Ki) was less than 10 nM. The 90% effect concentration (IC90) result in test [2] (Table 2m) was “+++ (+++=<10 μg/mL)”.

On to `Nc1noc2ccc(CN3C(=O)N(Cc4ccc5onc(N)c5c4)C(Cc4ccccc4)C(O)C(O)C3Cc3ccccc3)cc12` (stereo not shown) [15DG], for which the Ki in test [1] (setting [3]) was less than 10 nM. Moreover, the concentration for an effect of 90% (IC90) result in test [2] (Table 2d, HIV RNA assay) is reported as “+++ (+++=<10 μg/mL)”.
